Source: patent publication US8637510B2, “Morpholinothiazoles as alpha 7 positive allosteric modulators” (Janssen Pharmaceutica NV, priority 2009, dated 2014)

Test system: DBA/2 mice
Assay: Auditory evoked potential test in DBA/2 mice
Type: in vivo, mouse
Details: s.c.; male DBA/2 mice; TC ratio vs baseline, p<0.05
From the text: A number of compounds according to the invention have proven active in the auditory evoked potential test. […] The DBA/2 mouse has proven to be a useful model of schizophrenia-like sensory processing deficits. Human studies of nicotine effects on sensory processing predicted the results in the DBA/2 mouse and studies with the selective alpha 7 agonist GTS-21 in DBA/2 mice, predicted the effects in humans. This model of sensory gating ability therefore has high translational relevance.
The vehicle used was 20% hydroxypropyl-β-cyclodextrin (HP-β-CD) in water, acidified slightly with a few drops of tartaric acid. Both drug solution and vehicle were administered s.c. in a volume of 4 ml/kg. […]
The ratio of the P20-N40 amplitude of response to the second (test) stimulus and the first (conditioning) stimulus provides a measure of sensory inhibition; the ratio of the test to the conditioning amplitude (TC ratio) is 0.5 or less for most rodent strains and normal humans. […] The maximum negativity between 20 and 60 ms after the two stimuli was selected as the N40 wave and measured relative to the preceding positivity, the P20 wave. The amplitude from the P20 to the N40 wave was determined for both the conditioning and the test response. […]
All data were analyzed by multivariate analysis of variance with repeated measures. […]

**Q.** For `Cc1cc(-c2sc(N3C[C@@H](C)O[C@@H](C)C3)nc2CNC(=O)CC2CC2)cc(C)n1` [Compound 1, N-[[2-[(2R,6S)-2,6-dimethyl-4-morpholinyl]-5-(2,6-dimethyl-4-pyridinyl)-4-thiazolyl]methyl]-cyclopropaneacetamide], which lowest active dose is on record?
**A.** The lowest active dose was 0.63 mg/kg.

**Q.** `Cc1cc(-c2sc(N3C[C@@H](C)O[C@@H](C)C3)nc2CNC(=O)c2conc2C)cc(C)n1` [Compound 18, N-[[2-[(2R,6S)-2,6-dimethyl-4-morpholinyl]-5-(2,6-dimethyl-4-pyridinyl)-4-thiazolyl]methyl]-3-methyl-4-isoxazolecarboxamide] was tested. Which lowest active dose did it give?
**A.** The lowest active dose was 0.04 mg/kg.
